Experimental data reported in US20100215618A1, “NOVEL COMPOUNDS - 644” (Arrow Therapeutics Limited, priority 2009, published 2010).
Where two headings read alike, the source gives them in different places.

Tested on: HCV genotype 1a replicon cells Htat2ANeo
Assay: 1a Replicon Assay (cell-based anti-NS5a ELISA)
Details: Hepatitis C virus, 72 h
Method in brief: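 HCV 1a Htat2ANeo replicon cells (Et2AN control cells) exposed to compound for 72 h at 37° C without G418/blasticidin. NS5a quantified by cell-based ELISA (anti-NS5a, HRP/OPD, A490); IC50 from percentage reduction versus untreated control. Cytotoxicity TD50 by Cell Titre Blue fluorescence (ex 570/em 590 nm) versus DMSO controls.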

[1] = read-out: pIC50 1a Replicon (converted)

Compound | IC50 (read-out: HCV IC50 Elisa 1a) [µM] | IC50 [1] [µM]
CC(C)(C)OC(=O)N[C@@H](C(=O)N1CCC[C@H]1c1ncc(-c2ccc(-c3ccc(C(=O)Nc4ccc(CN5CCS(=O)(=O)CC5)cc4)cc3)cc2)[nH]1)c1ccccc1 [Example 2, Tert-butyl N-[(1R)-2-[(2S)-2-[5-[4-[4-[[4-[(1,1-dioxo-1,4-thiazinan-4-yl)methyl]phenyl]carbamoyl]phenyl]phenyl]-1H-imidazol-2-yl]pyrrolidin-1-yl]-2-oxo-1-phenyl-ethyl]carbamate] | 0.056 | 0.0562
COC(=O)N[C@H](C(=O)N1CCC[C@H]1c1ncc(-c2ccc(-c3ccc(C(=O)Nc4ccc(CN5CCS(=O)(=O)CC5)cc4)cc3)cc2)[nH]1)C(C)C [Example 3, Methyl N-[(1S)-1-[(2S)-2-[5-[4-[4-[[4-[(1,1-dioxo-1,4-thiazinan-4-yl)methyl]phenyl]carbamoyl]phenyl]phenyl]-1H-imidazol-2-yl]pyrrolidine-1-carbonyl]-2-methyl-propyl]carbamate] | 0.00646 | 0.00646
COC(=O)N[C@H](C(=O)N1CCC[C@H]1c1ncc(-c2ccc(-c3ccc(C(=O)Nc4ccc(CN5CCS(=O)(=O)CC5)cc4)cc3)cc2)[nH]1)C(C)(C)C [Example 5, Methyl N-[(1S)-1-[(2S)-2-[5-[4-[4-[[4-[(1,1-dioxo-1,4-thiazinan-4-yl)methyl]phenyl]carbamoyl]phenyl]phenyl]-1H-imidazol-2-yl]pyrrolidine-1-carbonyl]-2,2-dimethyl-propyl]carbamate] | 0.0331 | 0.0331
COC(=O)N[C@H](C(=O)N1CCC[C@H]1c1ncc(-c2ccc(-c3ccc(C(=O)Nc4ccc(CN5CCS(=O)(=O)CC5)cc4)cc3)cc2)[nH]1)c1ccccc1 [Example 6, Methyl N-[(1S)-2-[(2S)-2-[5-[4-[4-[[4-[(1,1-dioxo-1,4-thiazinan-4-yl)methyl]phenyl]carbamoyl]phenyl]phenyl]-1H-imidazol-2-yl]pyrrolidin-1-yl]-2-oxo-1-phenyl-ethyl]carbamate] | 0.0333 | 0.0331
COC(=O)N[C@@H](C(=O)N1CCC[C@H]1c1ncc(-c2ccc(-c3ccc(C(=O)Nc4ccc(CN5CCS(=O)(=O)CC5)cc4)cc3)cc2)[nH]1)c1ccccc1 [Example 7, Methyl N-[(1R)-2-[(2S)-2-[5-[4-[4-[[4-[(1,1-dioxo-1,4-thiazinan-4-yl)methyl]phenyl]carbamoyl]phenyl]phenyl]-1H-imidazol-2-yl]pyrrolidin-1-yl]-2-oxo-1-phenyl-ethyl]carbamate] | 0.032 | 0.0324
CCN(CC)[C@@H](C(=O)N1CCC[C@H]1c1ncc(-c2ccc(-c3ccc(C(=O)Nc4ccc(CN5CCS(=O)(=O)CC5)cc4)cc3)cc2)[nH]1)c1ccccc1 [Example 8, 4-[4-[2-[(2S)-1-[(2R)-2-(diethylamino)-2-phenyl-acetyl]pyrrolidin-2-yl]-1H-imidazol-5-yl]phenyl]-N-[4-[(1,1-dioxo-1,4-thiazinan-4-yl)methyl]phenyl]benzamide] | 0.00475 | 0.00479
CN(C)[C@@H](C(=O)N1CCC[C@H]1c1ncc(-c2ccc(-c3ccc(C(=O)Nc4ccc(CN5CCS(=O)(=O)CC5)cc4)cc3)cc2)[nH]1)c1ccccc1 [Example 9, 4-[4-[2-[(2S)-1-[(2R)-2-(dimethylamino)-2-phenyl-acetyl]pyrrolidin-2-yl]-1H-imidazol-5-yl]phenyl]-N-[4-[(1,1-dioxo-1,4-thiazinan-4-yl)methyl]phenyl]benzamide] | 0.0132 | 0.0132
COC(=O)N[C@@H](CC(C)C)C(=O)N1CCC[C@H]1c1ncc(-c2ccc(-c3ccc(C(=O)Nc4ccc(CN5CCS(=O)(=O)CC5)cc4)cc3)cc2)[nH]1 [Example 14, Methyl N-[(1S)-1-[(2S)-2-[5-[4-[4-[[4-[(1,1-dioxo-1,4-thiazinan-4-yl)methyl]phenyl]carbamoyl]phenyl]phenyl]-1H-imidazol-2-yl]pyrrolidine-1-carbonyl]-3-methyl-butyl]carbamate] | 0.0157 | 0.0158
CC[C@H](C)[C@H](NC(=O)OC)C(=O)N1CCC[C@H]1c1ncc(-c2ccc(-c3ccc(C(=O)Nc4ccc(CN5CCS(=O)(=O)CC5)cc4)cc3)cc2)[nH]1 [Example 16, Methyl N-[(1S,2S)-1-[(2S)-2-[5-[4-[4-[[4-[(1,1-dioxo-1,4-thiazinan-4-yl)methyl]phenyl]carbamoyl]phenyl]phenyl]-1H-imidazol-2-yl]pyrrolidine-1-carbonyl]-2-methyl-butyl]carbamate] | 0.00839 | 0.00832
COC(=O)N[C@H](C(=O)N1CCC[C@@H]1c1ncc(-c2ccc(-c3ccc(C(=O)Nc4ccc(CN5CCS(=O)(=O)CC5)cc4)cc3)cc2)[nH]1)C(C)C [Example 20, Methyl N-[(1S)-1-[(2R)-2-[5-[4-[4-[[4-[(1,1-dioxo-1,4-thiazinan-4-yl)methyl]phenyl]carbamoyl]phenyl]phenyl]-1H-imidazol-2-yl]pyrrolidine-1-carbonyl]-2-methyl-propyl]carbamate] | 1.47 | 1.48
CCCS(=O)(=O)N1CCN(Cc2ccc(NC(=O)c3ccc(-c4ccc(-c5cnc([C@@H]6CCCN6C(=O)[C@@H](NC(=O)OC)C(C)C)[nH]5)cc4)cc3)cc2)CC1 [Example 40, Methyl N-[(1S)-2-methyl-1-[(2S)-2-[5-[4-[4-[[4-[(4-propylsulfonylpiperazin-1-yl)methyl]phenyl]carbamoyl]phenyl]phenyl]-1H-imidazol-2-yl]pyrrolidine-1-carbonyl]propyl]carbamate] | 0.0426 | 0.0427
COC(=O)N[C@H](C(=O)N1CCOC[C@H]1c1ncc(-c2ccc(-c3ccc(C(=O)Nc4ccc(CN5CCS(=O)(=O)CC5)cc4)cc3)cc2)[nH]1)c1ccccc1 [Example 47, Methyl N-[(1S)-2-[(3R)-3-[5-[4-[4-[[4-[(1,1-dioxo-1,4-thiazinan-4-yl)methyl]phenyl]carbamoyl]phenyl]phenyl]-1H-imidazol-2-yl]morpholin-4-yl]-2-oxo-1-phenyl-ethyl]carbamate] | 0.0733 | 0.0741
COC(=O)N[C@H](C(=O)N1CCC[C@H]1c1ncc(-c2ccc(-c3ccc(C(=O)Nc4ccc(CN5CCS(=O)(=O)CC5)cc4)cc3)c(C)c2)[nH]1)C(C)C [Example 54, Methyl N-[(1S)-1-[(2S)-2-[5-[4-[4-[[4-[(1,1-dioxo-1,4-thiazinan-4-yl)methyl]phenyl]carbamoyl]phenyl]-3-methyl-phenyl]-1H-imidazol-2-yl]pyrrolidine-1-carbonyl]-2-methyl-propyl]carbamate] | 0.00938 | 0.00933
